How the values were obtained:
[1] = Inhibition of PAF-induced rabbit platelet aggregation
[2] = Inhibition of [3H]PAF binding to rabbit platelet membrane

## COc1cc(C(=O)N2CCN(C(=O)c3cc(OC)c(OC)c(OC)c3)CC2)cc(OC)c1OC
[1]
  IC50: 1.78 µM

## C[C@@H]1C(=O)O[C@H]2[C@H](O)[C@@]34[C@H]5C[C@@H](C(C)(C)C)[C@]36[C@@H](OC(=O)[C@@H]6O)O[C@@]4(C(=O)O5)[C@@]12O
[2]
  EC50: 0.18 µM
[1]
  IC50: 0.74 µM

## COc1cc(N2CCN(c3cc(OC)c(OC)c(OC)c3)CC2)cc(OC)c1OC [1,4-Bis-(3,4,5-trimethoxy-phenyl)-piperazine]
[1]
  IC50: 12.5 µM

## COc1cc(C(=O)N2CCN(C(=O)c3cc(OC)c(OC)c(OC)c3)C(COC(=O)C(C)(C)C)C2)cc(OC)c1OC (stereo unspecified) [2,2-Dimethyl-propionic acid 1,4-bis-(3,4,5-trimethoxy-benzoyl)-piperazin-2-ylmethyl ester]
[2]
  EC50: 0.3 µM
[1]
  IC50: 0.1 µM

## COc1cc(C(=O)N2CCN(C(=O)c3cc(OC)c(OC)c(OC)c3)C(COC(=O)c3ccccc3Cl)C2)cc(OC)c1OC (stereo unspecified) [2-Chloro-benzoic acid 1,4-bis-(3,4,5-trimethoxy-benzoyl)-piperazin-2-ylmethyl ester]
[2]
  EC50: 0.45 µM
[1]
  IC50: 0.17 µM

## CCC(CC)C(=O)OCC1CN(Cc2cc(OC)c(OC)c(OC)c2)CCN1Cc1cc(OC)c(OC)c(OC)c1 (stereo unspecified) [2-Ethyl-butyric acid 1,4-bis-(3,4,5-trimethoxy-benzyl)-piperazin-2-ylmethyl ester]
[1]
  IC50: 2.7 µM

## COc1cc(C(=O)N2CCN(C(=O)c3cc(OC)c(OC)c(OC)c3)C(COC(=O)CC(C)(C)C)C2)cc(OC)c1OC (stereo unspecified) [3,3-Dimethyl-butyric acid 1,4-bis-(3,4,5-trimethoxy-benzoyl)-piperazin-2-ylmethyl ester]
[1]
  IC50: 0.12 µM

## CCC(C)(C)NC(=O)OCC1CN(C(=O)c2cc(OC)c(OC)c(OC)c2)CCN1C(=O)c1cc(OC)c(OC)c(OC)c1 (stereo unspecified) [(1,1-Dimethyl-propyl)-carbamic acid 1,4-bis-(3,4,5-trimethoxy-benzoyl)-piperazin-2-ylmethyl ester]
[1]
  IC50: 0.32 µM

## COc1cc(C(=O)N2CCN(C(=O)c3cc(OC)c(OC)c(OC)c3)C(COC(=O)NC(C)C(C)(C)C)C2)cc(OC)c1OC (stereo unspecified) [(1,2,2-Trimethyl-propyl)-carbamic acid 1,4-bis-(3,4,5-trimethoxy-benzoyl)-piperazin-2-ylmethyl ester]
[1]
  IC50: 0.17 µM

## COc1cc(C(=O)N2CCN(C(=O)c3cc(OC)c(OC)c(OC)c3)C(COC(=O)NC(C)C(C)C)C2)cc(OC)c1OC (stereo unspecified) [(1,2-Dimethyl-propyl)-carbamic acid 1,4-bis-(3,4,5-trimethoxy-benzoyl)-piperazin-2-ylmethyl ester]
[2]
  EC50: 0.07 µM
[1]
  IC50: 0.08 µM

## COc1cc(C(=O)N2CCN(C(=O)c3cc(OC)c(OC)c(OC)c3)C(COC(=O)NC(C)CC(C)C)C2)cc(OC)c1OC (stereo unspecified) [(1,3-Dimethyl-butyl)-carbamic acid 1,4-bis-(3,4,5-trimethoxy-benzoyl)-piperazin-2-ylmethyl ester]
[2]
  EC50: 0.18 µM
[1]
  IC50: 0.28 µM

## CCCN(CCC)C(=O)OCC1CN(C(=O)c2cc(OC)c(OC)c(OC)c2)CCN1C(=O)c1cc(OC)c(OC)c(OC)c1 (stereo unspecified) [(1,4-bis(3,4,5-trimethoxybenzoyl)piperazin-2-yl)methyl dipropylcarbamate]
[2]
  EC50: 0.68 µM
[1]
  IC50: 0.38 µM

## CCC(CC)NC(=O)OCC1CN(C(=O)c2cc(OC)c(OC)c(OC)c2)CCN1C(=O)c1cc(OC)c(OC)c(OC)c1 (stereo unspecified) [(1-Ethyl-propyl)-carbamic acid 1,4-bis-(3,4,5-trimethoxy-benzoyl)-piperazin-2-ylmethyl ester]
[1]
  IC50: 0.13 µM

## CCCC(C)NC(=O)OCC1CN(C(=O)c2cc(OC)c(OC)c(OC)c2)CCN1C(=O)c1cc(OC)c(OC)c(OC)c1 (stereo unspecified) [(1-Methyl-butyl)-carbamic acid 1,4-bis-(3,4,5-trimethoxy-benzoyl)-piperazin-2-ylmethyl ester]
[1]
  IC50: 0.1 µM

## CCCCC(CC)CNC(=O)OCC1CN(C(=O)c2cc(OC)c(OC)c(OC)c2)CCN1C(=O)c1cc(OC)c(OC)c(OC)c1 (stereo unspecified) [(2-Ethyl-hexyl)-carbamic acid 1,4-bis-(3,4,5-trimethoxy-benzoyl)-piperazin-2-ylmethyl ester]
[1]
  IC50: 3.9 µM

## CCC(C)CNC(=O)OCC1CN(C(=O)c2cc(OC)c(OC)c(OC)c2)CCN1C(=O)c1cc(OC)c(OC)c(OC)c1 (stereo unspecified) [(2-Methyl-butyl)-carbamic acid 1,4-bis-(3,4,5-trimethoxy-benzoyl)-piperazin-2-ylmethyl ester]
[1]
  IC50: 0.47 µM

## COc1cc(NC(=O)OCC2CN(C(=O)c3cc(OC)c(OC)c(OC)c3)CCN2C(=O)c2cc(OC)c(OC)c(OC)c2)cc(OC)c1OC (stereo unspecified) [(3,4,5-Trimethoxy-phenyl)-carbamic acid 1,4-bis-(3,4,5-trimethoxy-benzoyl)-piperazin-2-ylmethyl ester]
[1]
  IC50: 13.8 µM

## COc1cc(C(=O)N2CCN(C(=O)c3cc(OC)c(OC)c(OC)c3)C(COC(=O)NCCC(C)C)C2)cc(OC)c1OC (stereo unspecified) [(3-Methyl-butyl)-carbamic acid 1,4-bis-(3,4,5-trimethoxy-benzoyl)-piperazin-2-ylmethyl ester]
[1]
  IC50: 0.14 µM

## COc1cc(C(=O)N2CCN(C(=O)c3cc(OC)c(OC)c(OC)c3)C(COC(=O)COc3ccc(Cl)cc3)C2)cc(OC)c1OC (stereo unspecified) [(4-Chloro-phenoxy)-acetic acid 1,4-bis-(3,4,5-trimethoxy-benzoyl)-piperazin-2-ylmethyl ester]
[1]
  IC50: 5 µM

## COc1cc(C(=O)N2CCN(C(=O)c3cc(OC)c(OC)c(OC)c3)C(COC(=O)COc3ccc(F)cc3)C2)cc(OC)c1OC (stereo unspecified) [(4-Fluoro-phenoxy)-acetic acid 1,4-bis-(3,4,5-trimethoxy-benzoyl)-piperazin-2-ylmethyl ester]
[1]
  IC50: 10.3 µM

## COc1cc(C(=O)N2CCN(C(=O)c3cc(OC)c(OC)c(OC)c3)C(COC(C)=O)C2)cc(OC)c1OC (stereo unspecified) [Acetic acid 1,4-bis-(3,4,5-trimethoxy-benzoyl)-piperazin-2-ylmethyl ester]
[2]
  EC50: 0.4 µM
[1]
  IC50: 0.43 µM

## CCCCNC(=O)OCC1CN(C(=O)c2cc(OC)c(OC)c(OC)c2)CCN1C(=O)c1cc(OC)c(OC)c(OC)c1 (stereo unspecified) [Butyl-carbamic acid 1,4-bis-(3,4,5-trimethoxy-benzoyl)-piperazin-2-ylmethyl ester]
[2]
  EC50: 0.7 µM
[1]
  IC50: 0.24 µM

## CCCC(=O)OCC1CN(C(=O)c2cc(OC)c(OC)c(OC)c2)CCN1C(=O)c1cc(OC)c(OC)c(OC)c1 (stereo unspecified) [Butyric acid 1,4-bis-(3,4,5-trimethoxy-benzoyl)-piperazin-2-ylmethyl ester]
[1]
  IC50: 0.42 µM

## COc1cc(C(=O)N2CCN(C(=O)c3cc(OC)c(OC)c(OC)c3)C(COC(=O)C3CCCCC3)C2)cc(OC)c1OC (stereo unspecified) [Cyclohexanecarboxylic acid 1,4-bis-(3,4,5-trimethoxy-benzoyl)-piperazin-2-ylmethyl ester]
[1]
  IC50: 0.29 µM

## CCCCCCCCCC(=O)OCC1CN(C(=O)c2cc(OC)c(OC)c(OC)c2)CCN1C(=O)c1cc(OC)c(OC)c(OC)c1 (stereo unspecified) [Decanoic acid 1,4-bis-(3,4,5-trimethoxy-benzoyl)-piperazin-2-ylmethyl ester]
[1]
  IC50: 2.82 µM

## CCCCN(CCCC)C(=O)OCC1CN(C(=O)c2cc(OC)c(OC)c(OC)c2)CCN1C(=O)c1cc(OC)c(OC)c(OC)c1 (stereo unspecified) [Dibutyl-carbamic acid 1,4-bis-(3,4,5-trimethoxy-benzoyl)-piperazin-2-ylmethyl ester]
[1]
  IC50: 1.25 µM

## CCN(CC)C(=O)OCC1CN(C(=O)c2cc(OC)c(OC)c(OC)c2)CCN1C(=O)c1cc(OC)c(OC)c(OC)c1 (stereo unspecified) [Diethyl-carbamic acid 1,4-bis-(3,4,5-trimethoxy-benzoyl)-piperazin-2-ylmethyl ester]
[1]
  IC50: 25.8 µM

## CCCCCN(CCCCC)C(=O)OCC1CN(C(=O)c2cc(OC)c(OC)c(OC)c2)CCN1C(=O)c1cc(OC)c(OC)c(OC)c1 (stereo unspecified) [Dipentyl-carbamic acid 1,4-bis-(3,4,5-trimethoxy-benzoyl)-piperazin-2-ylmethyl ester]
[1]
  IC50: 11.4 µM

## CCCCCC(=O)OCC1CN(C(=O)c2cc(OC)c(OC)c(OC)c2)CCN1C(=O)c1cc(OC)c(OC)c(OC)c1 (stereo unspecified) [Hexanoic acid 1,4-bis-(3,4,5-trimethoxy-benzoyl)-piperazin-2-ylmethyl ester]
[1]
  IC50: 0.29 µM

## CCCCCCCCCCCCCCCCCC(=O)OCC1CN(C(=O)c2cc(OC)c(OC)c(OC)c2)CCN1C(=O)c1cc(OC)c(OC)c(OC)c1 (stereo unspecified) [Octadecanoic acid 1,4-bis-(3,4,5-trimethoxy-benzoyl)-piperazin-2-ylmethyl ester]
[1]
  IC50: 45 µM

## CCCCCCCC(=O)OCC1CN(C(=O)c2cc(OC)c(OC)c(OC)c2)CCN1C(=O)c1cc(OC)c(OC)c(OC)c1 (stereo unspecified) [Octanoic acid 1,4-bis-(3,4,5-trimethoxy-benzoyl)-piperazin-2-ylmethyl ester]
[1]
  IC50: 0.31 µM

## CCCCCCCCNC(=O)OCC1CN(C(=O)c2cc(OC)c(OC)c(OC)c2)CCN1C(=O)c1cc(OC)c(OC)c(OC)c1 (stereo unspecified) [Octyl-carbamic acid 1,4-bis-(3,4,5-trimethoxy-benzoyl)-piperazin-2-ylmethyl ester]
[1]
  IC50: 0.37 µM

## COc1cc(C(=O)N2CCN(C(=O)c3cc(OC)c(OC)c(OC)c3)C(COC(=O)NC(C)(C)C)C2)cc(OC)c1OC (stereo unspecified) [tert-Butyl-carbamic acid 1,4-bis-(3,4,5-trimethoxy-benzoyl)-piperazin-2-ylmethyl ester]
[1]
  IC50: 0.13 µM
